The subject of this experiment is HIV-1 (HIVIIIB). Description: HIV-1 replication in MT2 cell line with and without 30% human serum (viral RT activity in supernatant). The class given is cell-based. The following applies: Human immunodeficiency virus 1, MT2, MT-2 cells, with 30% human serum, average IC50 if tested more than once, read-out: MT-2 (HIVIIIB) with 30% HS IC50 range. The procedure:
HIV-1 Replication in MT2 cell line with and without 30% human serum: The cells are infected at a Multiciplicity of Infection (MOI) of 0.5 for 3 h and then washed twice with complete media to remove residual virus. Cells are then resuspended at 0.5×10^6/ml in complete medium (RPMI, 10% FBS, 1% sodium pyruvate), and seeded into 96-well plates (6.25×10^4/well). The cells are cultured in the presence or absence of various concentrations of test compounds in serial dilutions for 3 days at 37° C. The test compounds are serially diluted in complete medium supplemented or not with 30% human serum. After 3 days, 100 μL of cultured medium with cells are replaced with 120 μL of freshly diluted test compounds in complete medium containing or not 30% Human serum. The level of HIV-1 replication is determined at days 5 after infection by the presence of viral RT activity in harvested supernatant fluid. The IC50 and IC90 values for the virus replication are determined by using GRAPHPAD PRISM software.
The IC50 of the compounds tested in accordance with the HIV replication activity assay MT-2 (HIVIIIB) are represented in Table 4 (without HS) and Table 5 (with 30% HS)

As for `CC(C)C1=C2C3CCC4[C@@]5(C)CC[C@H](OC(=O)CC(C)(C)C(=O)O)C(C)(C)C5CC[C@@]4(C)[C@]3(C)CC[C@@]2(C(=O)NCC2CCC(F)(F)CC2)CC1=O` (stereo partly drawn) [9-93, 3β-O-(3′,3′-Dimethylsuccinyl)-21-oxolup-18-en-28-oic acid N-(4,4-difluoro-cyclohexylmethyl)-acetamide], the IC50 (usually the concentration that gives 50% inhibition) is less than 0.199 µM.
On to `CC(C)C1=C2[C@H]3CC[C@@H]4[C@@]5(C)CC[C@H](OC(=O)CC(C)(C)C(=O)O)C(C)(C)[C@@H]5CC[C@@]4(C)[C@]3(C)CC[C@@]2(C(=O)N2C3CCC2CN(C(=O)OC(C)(C)C)C3)CC1=O` [9-50, 3β-O-(3′,3′-Dimethylsuccinyl)-21-oxolup-18-en-28-oic acid N-8-acetylamino-3,8-diaza-bicyclo[3.2.1]octane-3-carboxylic acid tert-butyl ester], for which the IC50 is less than 0.199 µM.
The value for `CC(C)C1=C2[C@H]3CC[C@@H]4[C@@]5(C)CC[C@H](OC(=O)CC(C)(C)C(=O)O)C(C)(C)[C@@H]5CC[C@@]4(C)[C@]3(C)CC[C@@]2(C(=O)N2C3CCC2CN(C(=O)c2ccccc2)C3)CC1=O` [9-36, 3β-O-(3′,3′-Dimethylsuccinyl)-21-oxolup-18-en-28-oic acid N-(8-amino-3,8-diaza-bicyclo[3.2.1]octane-3-benzamide)-acetamide] was less than 0.199 µM.
For the compound `CCOC(=O)NC1CCN(C(=O)[C@@]23CC[C@]4(C)[C@H](CC[C@@H]5[C@@]6(C)CC[C@H](OC(=O)CC(C)(C)C(=O)O)C(C)(C)[C@@H]6CC[C@]54C)C2=C(C(C)C)C(=O)C3)CC1` [9-67, 3β-O-(3′,3′-Dimethylsuccinyl)-21-oxolup-18-en-28-oic acid N-(4-aminocarboxylic acid ethyl ester-1-piperidine)-acetamide], the concentration for half-maximal inhibition (IC50) was less than 0.199 µM.
For `CC(C)C1=C2C3CCC4[C@@]5(C)CC[C@H](OC(=O)CC(C)(C)C(=O)O)C(C)(C)C5CC[C@@]4(C)[C@]3(C)CC[C@@]2(C(=O)NC[C@H]2CCCN2)CC1=O` (stereo partly drawn) [9-81, 3β-O-(3′,3′-Dimethylsuccinyl)-21-oxolup-18-en-28-oic acid N-((R)-1-pyrrolidin-2-ylmethyl)-acetamide], the half-inhibitory concentration (IC50) is less than 0.199 µM.
In the case of `CC(C)C1=C2[C@H]3CC[C@@H]4[C@@]5(C)CC[C@H](OC(=O)CC(C)(C)C(=O)O)C(C)(C)[C@@H]5CC[C@@]4(C)[C@]3(C)CC[C@@]2(C(=O)NCc2ccc(Cl)cc2)CC1=O` [9-14, 3β-O-(3′,3′-Dimethylsuccinyl)-21-oxolup-18-en-28-oic acid N-4-chloro-benzylamide], the half-inhibitory concentration (IC50) was less than 0.199 µM.
As for `CC(C)C1=C2[C@H]3CC[C@@H]4[C@@]5(C)CC[C@H](OC(=O)CC(C)(C)C(=O)O)C(C)(C)[C@@H]5CC[C@@]4(C)[C@]3(C)CC[C@@]2(C(=O)NCc2ccncc2)CC1=O` [9-18, 3β-O-(3′,3′-Dimethylsuccinyl)-21-oxolup-18-en-28-oic acid N-pyridin-4-ylmethylamide], the IC50 is less than 0.199 µM.
As to `CC(C)C1=C2[C@H]3CC[C@@H]4[C@@]5(C)CC[C@H](OC(=O)CC(C)(C)C(=O)O)C(C)(C)[C@@H]5CC[C@@]4(C)[C@]3(C)CC[C@@]2(C(=O)NCc2ccccc2Cl)CC1=O` [9-12, 3β-O-(3′,3′-Dimethylsuccinyl)-21-oxolup-18-en-28-oic acid N-2-chloro-benzylamide], the IC50 is less than 0.199 µM.
As for `CC(C)C1=C2C3CCC4[C@@]5(C)CC[C@H](OC(=O)CC(C)(C)C(=O)O)C(C)(C)C5CC[C@@]4(C)[C@]3(C)CC[C@@]2(C(=O)Nc2ccc(F)cc2)CC1=O` (stereo partly drawn) [9-88, 3β-O-(3′,3′-Dimethylsuccinyl)-21-oxolup-18-en-28-oic acid N-4-fluoro-phen-1-yl acetamide], the concentration for half-maximal inhibition (IC50) was less than 0.199 µM.
Regarding `CC(C)C1=C2[C@H]3CC[C@@H]4[C@@]5(C)CC[C@H](OC(=O)CC(C)(C)C(=O)O)C(C)(C)[C@@H]5CC[C@@]4(C)[C@]3(C)CC[C@@]2(C(=O)N2CCN(C(=O)OC(C)(C)C)CC2)CC1=O` [9-27, 3β-O-(3′,3′-Dimethylsuccinyl)-21-oxolup-18-en-28-oic acid N-1-acetyl-piperazine-4-carboxylic acid tert-butyl ester], the IC50 was less than 0.199 µM.
To `CC(C)NC(=O)NCCNC(=O)[C@@]12CC[C@]3(C)[C@H](CC[C@@H]4[C@@]5(C)CC[C@H](OC(=O)CC(C)(C)C(=O)O)C(C)(C)[C@@H]5CC[C@]43C)C1=C(C(C)C)C(=O)C2` [9-23, 3β-O-(3′,3′-Dimethylsuccinyl)-21-oxolup-18-en-28-oic acid N-[2-(3-isopropyl-ureido)-ethyl]-acetamide] belongs less than 0.199 µM; to `CC(C)C1=C2[C@H]3CC[C@@H]4[C@@]5(C)CC[C@H](OC(=O)CC(C)(C)C(=O)O)C(C)(C)[C@@H]5CC[C@@]4(C)[C@]3(C)CC[C@@]2(C(=O)N2CCOCC2)CC1=O` [9-7, 3β-O-(3′,3′-Dimethylsuccinyl)-21-oxolup-18-en-28-oic acid N-morpholyl acetamide], less than 0.199 µM; to `CC(C)C1=C2[C@H]3CC[C@@H]4[C@@]5(C)CC[C@H](OC(=O)CC(C)(C)C(=O)O)C(C)(C)[C@@H]5CC[C@@]4(C)[C@]3(C)CC[C@@]2(C(=O)N(C)Cc2ccccc2)CC1=O` [9-11, 3β-O-(3′,3′-Dimethylsuccinyl)-21-oxolup-18-en-28-oic acid N-methyl-N-benzylamide], less than 0.199 µM.
The value for `CC(C)C1=C2C3CCC4[C@@]5(C)CC[C@H](OC(=O)CC(C)(C)C(=O)O)C(C)(C)C5CC[C@@]4(C)[C@]3(C)CC[C@@]2(C(=O)NC[C@@H]2CCCN2)CC1=O` (stereo partly drawn) [9-82, 3β-O-(3′,3′-Dimethylsuccinyl)-21-oxolup-18-en-28-oic acid N-((S)-1-pyrrolidin-2-ylmethyl)-acetamide] was less than 0.199 µM; that for `CC(C)C1=C2C3CCC4[C@@]5(C)CC[C@H](OC(=O)CC(C)(C)C(=O)O)C(C)(C)C5CC[C@@]4(C)[C@]3(C)CC[C@@]2(C(=O)NC[C@H]2CCCN2C)CC1=O` (stereo partly drawn) [9-83, 3β-O-(3′,3′-Dimethylsuccinyl)-21-oxolup-18-en-28-oic acid N-((R)-1-methyl-pyrrolidin-2-ylmethyl)-acetamide] was less than 0.199 µM.
To `CC(C)C1=C2C3CCC4[C@@]5(C)CC[C@H](OC(=O)CC(C)(C)C(=O)O)C(C)(C)C5CC[C@@]4(C)[C@]3(C)CC[C@@]2(C(=O)NC[C@H]2CCCN2C(=O)OC(C)(C)C)CC1=O` (stereo partly drawn) [9-79, 3β-O-(3′,3′-Dimethylsuccinyl)-21-oxolup-18-en-28-oic acid N-(R)-2-acetylaminomethyl-pyrrolidine-1-carboxylic acid tert-butyl ester] belongs less than 0.199 µM; to `CC(C)C1=C2[C@H]3CC[C@@H]4[C@@]5(C)CC[C@H](OC(=O)CC(C)(C)C(=O)O)C(C)(C)[C@@H]5CC[C@@]4(C)[C@]3(C)CC[C@@]2(C(=O)NCCN2CCCC2)CC1=O` [9-61, 3β-O-(3′,3′-Dimethylsuccinyl)-21-oxolup-18-en-28-oic acid N-(2-pyrrolidin-1-yl-ethyl)-acetamide], less than 0.199 µM; to `CC(C)C1=C2C3CCC4[C@@]5(C)CC[C@H](OC(=O)CC(C)(C)C(=O)O)C(C)(C)C5CC[C@@]4(C)[C@]3(C)CC[C@@]2(C(=O)Nc2ncc3ccccc3n2)CC1=O` (stereo partly drawn) [9-89, 3β-O-(3′,3′-Dimethylsuccinyl)-21-oxolup-18-en-28-oic acid N-quinazolin-2-yl acetamide], less than 0.199 µM.
Take `Cc1ccccc1NC(=O)[C@@]12CC[C@]3(C)[C@H](CC[C@@H]4[C@@]5(C)CC[C@H](OC(=O)CC(C)(C)C(=O)O)C(C)(C)[C@@H]5CC[C@]43C)C1=C(C(C)C)C(=O)C2` [9-47, 3β-O-(3′,3′-Dimethylsuccinyl)-21-oxolup-18-en-28-oic acid N-2-methyl-phen-1-yl acetamide]: the IC50 was less than 0.199 µM.
Regarding `CC(C)C1=C2[C@H]3CC[C@@H]4[C@@]5(C)CC[C@H](OC(=O)CC(C)(C)C(=O)O)C(C)(C)[C@@H]5CC[C@@]4(C)[C@]3(C)CC[C@@]2(C(=O)Nc2ccnn2C)CC1=O` [9-54, 3β-O-(3′,3′-Dimethylsuccinyl)-21-oxolup-18-en-28-oic acid N-5-amino-1-methyl-1H-pyrazole acetamide], the half-maximal inhibitory concentration (IC50) is less than 0.199 µM.
The value for `CC(=O)N1CCN(C(=O)[C@@]23CC[C@]4(C)[C@H](CC[C@@H]5[C@@]6(C)CC[C@H](OC(=O)CC(C)(C)C(=O)O)C(C)(C)[C@@H]6CC[C@]54C)C2=C(C(C)C)C(=O)C3)CC1` [9-8, 3β-O-(3′,3′-Dimethylsuccinyl)-21-oxolup-18-en-28-oic acid N-(4-acetylpiperazinyl) acetamide] was less than 0.199 µM.
For `CC(C)C1=C2[C@H]3CC[C@@H]4[C@@]5(C)CC[C@H](OC(=O)CC(C)(C)C(=O)O)C(C)(C)[C@@H]5CC[C@@]4(C)[C@]3(C)CC[C@@]2(C(=O)NCC(F)(F)F)CC1=O` [9-71, 3β-O-(3′,3′-Dimethylsuccinyl)-21-oxolup-18-en-28-oic acid N-(2,2,2-trifluoro-ethyl)-acetamide], the half-inhibitory concentration (IC50) is less than 0.199 µM.
Consider `COc1ccc(CNC(=O)[C@@]23CC[C@]4(C)[C@H](CC[C@@H]5[C@@]6(C)CC[C@H](OC(=O)CC(C)(C)C(=O)O)C(C)(C)[C@@H]6CC[C@]54C)C2=C(C(C)C)C(=O)C3)cc1` [9-15, 3β-O-(3′,3′-Dimethylsuccinyl)-21-oxolup-18-en-28-oic acid N-4-methoxy-benzylamide], for which the half-inhibitory concentration (IC50) is less than 0.199 µM.

These data come from patent publication US8431556B2, “C-21-keto lupane derivatives preparation and use thereof” (Vertex Pharmaceuticals Incorporated, priority 2008, dated 2013).
